Assay results: ChEMBL document CHEMBL5375960, “Design and Synthesis of Novel Cereblon Binders for Use in Targeted Protein Degradation” (J Med Chem, 2023)
Calls of active or inactive are those of the source. The rule behind the calls is not given here.

Legend:
[1] = target: Protein cereblon/DNA damage-binding protein 1 (Homo sapiens, UniProt Q96SW2); assay: Displacement of Cy5-labeled tracer CC0782985 from 6His-tagged CRBN (1 to 442 residues)/DDB1 (1 to 1140 residues) (unknown origin) incubated for 20 mins by TR-FRET assay; format: protein assay
[2] = target: Zinc finger protein Aiolos (Homo sapiens, UniProt Q9UKT9); assay: Induction of ePL tagged Aiolos degradation in human DF15 cells incubated for 4 hrs by luminescence based assay; format: cell-based
[3] = target: T1, Androgen receptor (Homo sapiens) (UniProt P10275); assay: Induction of androgen receptor degradation in human VCaP cells incubated for 24 hrs by ELISA; format: cell-based
T1 sequence (whole entry): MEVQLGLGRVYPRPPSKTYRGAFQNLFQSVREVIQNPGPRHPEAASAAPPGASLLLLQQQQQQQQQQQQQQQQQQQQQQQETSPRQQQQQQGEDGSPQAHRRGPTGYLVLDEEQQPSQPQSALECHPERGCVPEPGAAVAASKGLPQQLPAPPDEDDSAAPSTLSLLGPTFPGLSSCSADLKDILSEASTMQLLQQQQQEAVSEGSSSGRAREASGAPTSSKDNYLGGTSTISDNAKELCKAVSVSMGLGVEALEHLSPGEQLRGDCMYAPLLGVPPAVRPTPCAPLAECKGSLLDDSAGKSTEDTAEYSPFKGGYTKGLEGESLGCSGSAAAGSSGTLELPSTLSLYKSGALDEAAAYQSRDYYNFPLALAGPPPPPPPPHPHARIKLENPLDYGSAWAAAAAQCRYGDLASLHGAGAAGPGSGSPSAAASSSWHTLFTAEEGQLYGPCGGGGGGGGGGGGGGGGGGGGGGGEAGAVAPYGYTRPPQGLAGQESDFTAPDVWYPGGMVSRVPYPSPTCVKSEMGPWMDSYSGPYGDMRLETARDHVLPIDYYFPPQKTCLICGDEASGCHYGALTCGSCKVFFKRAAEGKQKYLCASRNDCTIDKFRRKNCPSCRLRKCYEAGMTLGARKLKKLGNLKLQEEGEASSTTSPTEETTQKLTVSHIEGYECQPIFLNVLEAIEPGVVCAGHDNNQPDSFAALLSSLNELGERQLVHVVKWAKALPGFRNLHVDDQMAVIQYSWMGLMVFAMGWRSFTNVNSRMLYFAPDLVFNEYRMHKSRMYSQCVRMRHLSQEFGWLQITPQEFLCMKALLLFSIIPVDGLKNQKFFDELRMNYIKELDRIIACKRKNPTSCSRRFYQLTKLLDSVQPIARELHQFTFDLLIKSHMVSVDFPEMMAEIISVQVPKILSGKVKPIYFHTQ

[4] = target: T2, Eukaryotic peptide chain release factor GTP-binding subunit ERF3A (Homo sapiens, UniProt P15170); assay: Induction of ePL tagged GSPT1 degradation in human DF15 cells incubated for 20 hrs by luminescence based assay; format: cell-based
[5] = target: T2, Eukaryotic peptide chain release factor GTP-binding subunit ERF3A; assay: Induction of ePL tagged GSPT1 degradation in human DF15 cells assessed as remaining activity incubated for 20 hrs by luminescence based assay relative to control; format: cell-based; design: concentration or dose not given beside the values
[6] = target: T2, Eukaryotic peptide chain release factor GTP-binding subunit ERF3A; assay: Induction of ePL tagged GSPT1 degradation in human DF15 cells incubated for 20 hrs by luminescence based assay relative to control; format: cell-based

SMILES	IC50 [1] [µM]	EC50 [2] [µM]	Activity [3]	EC50 [4] [µM]	Activity [5] [%]	Activity [6] [%]
Nc1ccc(N2CCC(=O)NC2=O)cc1	23.6	> 10	inactive			
Nc1cccc(N[C@@H]2CCC(=O)NC2=O)c1	2.9	> 10				
Nc1cccc(C(=O)NC2CCC(=O)NC2=O)c1 (stereo unspecified)	25.8	> 10				
Nc1cccc(N[C@H]2CCC(=O)NC2=O)c1	1.4	> 10				
Nc1cccc(NC2CCC(=O)NC2=O)c1 (stereo unspecified)	3.7	> 10				
O=C1CCC(n2ncc3ccccc32)C(=O)N1 (stereo unspecified)		> 10				
Cc1ccc(NC(=O)NCc2ccc(C3CCC(=O)NC3=O)cc2)cc1Cl (stereo unspecified)	0.29	> 10		0.07	73.4	26
O=C1CCC(NC(=O)c2ccccc2)C(=O)N1 (stereo unspecified)	11.1	> 10				
O=C1CCC(c2cccc(OCc3ccc(CN4CCOCC4)cc3)c2)C(=O)N1 (stereo unspecified)	0.58	> 10		> 10	96.6	
Cc1ccc(NC(=O)NCc2ccc(N3CCC(=O)NC3=O)cc2)cc1Cl	4.7	> 10		> 10	93.8	
Nc1cccc2c1cnn2C1CCC(=O)NC1=O (stereo unspecified)	0.34	> 10				
Nc1ccc(NC2CCC(=O)NC2=O)cc1 (stereo unspecified)	12.4	> 10				
O=C1CCC(c2ccccc2)C(=O)N1 (stereo unspecified)		> 10				
Nc1ccc2c(c1)ncn2C1CCC(=O)NC1=O (stereo unspecified)	0.59	0.312				
Cn1nc(C2CCC(=O)NC2=O)c2ccc(N)cc21 (stereo unspecified)	0.1	> 10				
O=C1CCC(n2cnc3ccc(OCc4ccc(CN5CCOCC5)cc4)cc32)C(=O)N1 (stereo unspecified)	0.28	0.07		> 10	99	
Nc1ccc(C(=O)NC2CCC(=O)NC2=O)cc1 (stereo unspecified)	5.5	0.607				
O=C1CCN(c2cccc(OCc3ccc(CN4CCOCC4)cc3)c2)C(=O)N1	3.3	> 10		> 10	94	
Nc1ccc(C2CCC(=O)NC2=O)cc1 (stereo unspecified)	1.2	> 10	Active			
O=C1CCC(c2ccc(OCc3ccc(CN4CCOCC4)cc3)cc2)C(=O)N1 (stereo unspecified)	1.9	> 10		> 10	97.1	
Nc1ccc2ncn(C3CCC(=O)NC3=O)c2c1 (stereo unspecified)	0.74	0.142				
O=C1CCC(Nc2ccccc2)C(=O)N1 (stereo unspecified)	5.6	> 10				

SMILES	IC50 [1] [µM]	EC50 [2] [µM]	Activity [3]	EC50 [4] [µM]	Activity [5] [%]	Activity [6] [%]
Cc1ccc(NC(=O)NCc2ccc(C(=O)NC3CCC(=O)NC3=O)cc2)cc1Cl (stereo unspecified)	3.4	> 10		0.1	33.7	
Cc1ccc(NC(=O)NCc2ccc3c(c2)CN(C2CCC(=O)NC2=O)C3=O)cc1Cl (stereo unspecified)	0.03	0.005		0.0003	3.9	
Cc1ccc(NC(=O)NCc2cccc(N3CCC(=O)NC3=O)c2)cc1Cl	8.6	> 10		> 10	95.2	
Cc1ccc(NC(=O)NCc2cccc(C(=O)NC3CCC(=O)NC3=O)c2)cc1Cl (stereo unspecified)	3.8	> 10		0.021	3.1	
O=C1CCC(Oc2ccccc2)C(=O)N1 (stereo unspecified)	7	> 10				
Nc1cccc(N2CCC(=O)NC2=O)c1	11.7	> 10	inactive			
O=C1CCN(c2ccccc2)C(=O)N1		> 10				
Cn1nc(C2CCC(=O)NC2=O)c2ccccc21 (stereo unspecified)	0.15	> 10				
COc1ccc(C2CCC(=O)NC2=O)cc1 (stereo unspecified)	2.2	> 10				
Nc1cccc(C2CCC(=O)NC2=O)c1 (stereo unspecified)	2.3	> 10	Active			
O=C1CCN(c2ccc(OCc3ccc(CN4CCOCC4)cc3)cc2)C(=O)N1	8	> 10		> 10	97.1	
Cc1ccc(NC(=O)NCc2ccccc2C(=O)NC2CCC(=O)NC2=O)cc1Cl (stereo unspecified)	10.3	> 10		> 10	88.4	
Nc1cccc2c1C(=O)N(C1CCC(=O)NC1=O)C2=O (stereo unspecified) [POMALIDOMIDE]		0.02				
Cn1nc(N2CCC(=O)NC2=O)c2cccc(N)c21	12.2	> 10				
O=c1ccn(-c2ccccc2)c(=O)[nH]1	> 100	> 10				
Cc1ccc(NC(=O)NCc2cccc(C3CCC(=O)NC3=O)c2)cc1Cl (stereo unspecified)	1.5	> 10		> 10	92.8	
Cn1nc(N2CCC(=O)NC2=O)c2ccccc21	6.7	> 10				
Cn1nc(N2CCC(=O)NC2=O)c2ccc(N)cc21	2.3	> 10				
COc1cccc(C2CCC(=O)NC2=O)c1 (stereo unspecified)	1.7	> 10				
O=C1CC[C@H](N2Cc3c(OCc4ccc(CN5CCOCC5)cc4)cccc3C2=O)C(=O)N1 [IBERDOMIDE]		0.001		> 10	88.8	
Nc1cccc2c1ncn2C1CCC(=O)NC1=O (stereo unspecified)	0.81	> 10				
Cn1nc(C2CCC(=O)NC2=O)c2cccc(N)c21 (stereo unspecified)	0.19	> 10				
